Molecular target: T1, Recombinant human DGAT2 protein (Homo sapiens, UniProt Q96PD7)
T1 construct: FLAG (DYKDDDDK); (N); made in house; host or cells: Sf-21 insect cells (BacPAK baculovirus system); used as a membrane preparation
T1 sequence (Q96PD7 1-388): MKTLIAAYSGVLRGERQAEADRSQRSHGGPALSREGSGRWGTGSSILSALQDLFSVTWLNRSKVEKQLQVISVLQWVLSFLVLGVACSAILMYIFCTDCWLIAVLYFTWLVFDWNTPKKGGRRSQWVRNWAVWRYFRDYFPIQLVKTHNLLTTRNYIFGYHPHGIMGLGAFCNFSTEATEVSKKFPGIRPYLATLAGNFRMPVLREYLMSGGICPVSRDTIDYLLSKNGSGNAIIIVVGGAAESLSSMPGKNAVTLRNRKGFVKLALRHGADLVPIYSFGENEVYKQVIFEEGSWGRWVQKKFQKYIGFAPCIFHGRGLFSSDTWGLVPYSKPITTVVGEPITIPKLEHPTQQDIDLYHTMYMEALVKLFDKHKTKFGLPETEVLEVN
Assay: Measurement of inhibitory effect against DGAT2 enzyme activity (SPA, Phospholipid FlashPlate, [14C]-TG production)
Assay type: biochemical
Conditions: concentration inhibiting [14C]-labeled triacyl glycerol (TG) production by 50%; 2 μg DGAT2-membrane protein from Sf-21 cells, 37° C.
Method: Experimental Example: Measurement of Inhibitory Effect Against DGAT2 Enzyme Activity
In order to prepare the pBacPAK9-DGAT2, which is DGAT2 expression vector, the human DGAT2 gene amplified by polymerase chain reaction (PCR) was cloned into the EcoR1 and Xho1 sites of the pBacPAK9 (clonctech) vector. The nucleotide sequence of the primers used in PCR was the forward primer 5′ […] and the reverse primer 5′ […]. The composition of the reaction solution was to contain 50 ng of cDNA clone (OriGene), 200 μM of dATP, dCTP, dTTP, dGTP, 200 nM of each primer, 1 unit of Tag DNA Polymerase (Toyobo), 1×PCR buffer, and the final volume was adjusted to 20 μl. The reaction conditions were denatured at 95° C. for 5 minutes, followed by 30 times of 94° C. for 20 seconds, 60° C. for 20 seconds, and 72° C. for 90 seconds, followed by further reaction at 72° C. for 7 minutes.
Recombinant human DGAT2 protein was expressed in Sf-21 cells, which are insect cells, by using the BacPack baculovirus expression system (Clontech). The brief manufacturing process is as follows. First, the pBacPAK9-DGAT2 expression vector was transfected with BacPAK6 virus DNA (Bsu36I digest) into sf21 cells using Bacfectin to prepare a recombinant DGAT2 expressing baculovirus. The thus prepared baculovirus was infected with Sf-21 cells at 10 MOI (multiplicity of infection), and after 72 hours, infected insect cells were collected and membrane proteins were isolated. For membrane protein separation, the cell pellet was dissolved in a sucrose solution containing 250 mM sucrose, 10 mM Tris (pH 7.4), and 1 mM ethylenediamine-tetraacetic acid (EDTA), and then homogenized by using a dounce homogenizer, and the supernatant was taken by centrifuging at 600×g for 15 minutes, and centrifuged at 100,000×g for 1 hour to discard the supernatant, and the remaining pellet was resuspended in 20 mM HEPES buffer (pH 7.4). The prepared DGAT2 overexpressing membrane protein was dispensed in 100 μl and stored at −80° C. until use. Protein concentration was quantified by using the BCA Protein Assay Kit (Thermo Scientific).
In vitro DGAT2 analysis was performed using a Phospholipid Flash Plate (PerkinElmer) based on the principle of SPA (Scintillation Proximity Assay). First, DGAT2 inhibition compounds serially diluted 5 times from 3 nM to 10 μM (final concentration, 1% DMSO) were mixed in a buffer solution containing 2 μg DGAT2-membrane protein and 20 mM HEPES, 20 mM MgCl2, 1 mg/mL BSA, 50 μM 1,2 sn-oleoyl glycerol (Sigma), put in a 96-well flash plate (FlashPlate) and reacted at 37° C. for 20 minutes, and then 1 μM [14C] ole oil CoA (PerkinElmer, NEC651050UC) was added to be a final volume of 100 μL and further reacted at 37° C. for 15 minutes. After the enzymatic reaction was completed, 100 μL of isopropanol was added, the plate was sealed with a film, and the plate was shaken slowly in a plate shaker. The next day, the amplified scintillation signal (cpm) in Topcounter (Packard) was measured to measure the degree of production of [14C]-labeled triacyl glycerol (TG) as a reaction product. The measured value when the compound was not treated was used as a positive control, and the measured value of the compound treated group was calculated as a relative % to measure the inhibition effect of the compound on TG production.

Compound | IC50
CCOc1ccccc1O[C@@H]1CCCN(c2cncc(NC(=O)C3CCN(CC(=O)O)CC3)n2)C1 [Example 84, (R)-2-(4-((6-(3-(2-ethoxyphenoxy)piperidin-1-yl)pyrazin-2-yl)carbamoyl)piperidin-1-yl)acetic acid] | > 10000 nM
CC(C)(Cc1ccc(CC(=O)Nc2cncc(N3CCC[C@@H](Oc4ccccc4OC4CC4)C3)n2)cc1)C(=O)O [Example 95, (R)-3-(4-(2-((6-(3-(2-cyclopropoxyphenoxy)piperidin-1-yl)pyrazin-2-yl)amino)-2-oxoethyl)phenyl)-2,2-dimethylpropanoic acid] | 150 nM
CCOc1ccccc1O[C@@H]1CCCN(c2cncc(NC(=O)N3CCC(C(=O)O)C3)n2)C1 (stereo partly drawn) [Example 5, 1-((6-((R)-3-(2-ethoxyphenoxy)piperidin-1-yl)pyrazin-2-yl)carbamoyl)pyrrolidine-3-carboxylic acid] | 51000 nM
CCOc1ccccc1O[C@@H]1CCCN(c2nccc(NC(=O)CCc3ccc(OC(C)(C)C(=O)O)cc3)n2)C1 [Example 109, (R)-2-(4-(3-((2-(3-(2-ethoxyphenoxy)piperidin-1-yl)pyrimidin-4-yl)amino)-3-oxopropyl)phenoxy)-2-methylpropanoic acid] | 1100 nM
CCOc1ccccc1O[C@@H]1CCCN(c2cncc(NC(=O)CCc3cc(F)c(C(=O)O)c(F)c3)n2)C1 [Example 53, (R)-4-(3-((6-(3-(2-ethoxyphenoxy)piperidin-1-yl)pyrazin-2-yl)amino)-3-oxopropyl)-2,6-difluorobenzoic acid] | 390 nM
CCOc1ccccc1O[C@@H]1CCCN(c2cncc(NC(=O)c3cccc(-c4ccc(CC(C)(C)C(=O)O)cc4)c3)n2)C1 [Example 130, (R)-3-(3′-((6-(3-(2-ethoxyphenoxy)piperidin-1-yl)pyrazin-2-yl)carbamoyl)-[1,1′-biphenyl]-4-yl)-2,2-dimethylpropanoic acid] | 380 nM
CCOc1ccccc1O[C@@H]1CCCN(c2cccc(NC(=O)CCc3ccc(C(C)(C)C(=O)O)cc3)n2)C1 [Example 70, (R)-2-(4-(3-((6-(3-(2-ethoxyphenoxy)piperidin-1-yl)pyridin-2-yl)amino)-3-oxopropyl)phenyl)-2-methylpropanoic acid] | 350 nM
CCOc1ccccc1O[C@@H]1CCCN(c2cncc(NC(=O)C(C)(C)c3ccc(N4CCC(C(=O)O)CC4)cc3)n2)C1 [Example 86, (R)-1-(4-(1-((6-(3-(2-ethoxyphenoxy)piperidin-1-yl)pyrazin-2-yl)amino)-2-methyl-1-oxopropan-2-yl)phenyl)piperidine-4-carboxylic acid] | > 10000 nM
CCOc1ccccc1O[C@@H]1CCCN(c2cncc(NC(=O)CCc3ccc(CCC(=O)O)cc3)n2)C1 [Example 61, (R)-3-(4-(3-((6-(3-(2-ethoxyphenoxy)piperidin-1-yl)pyrazin-2-yl)amino)-3-oxopropyl)phenyl)propanoic acid] | 150 nM
CCOc1ccccc1O[C@@H]1CCCN(c2cncc(NC(=O)Cc3cccc(C(=O)O)c3)n2)C1 [Example 33, (R)-3-(2-((6-(3-(2-ethoxyphenoxy)piperidin-1-yl)pyrazin-2-yl)amino)-2-oxoethyl)benzoic acid] | 4500 nM
CCOc1cccnc1O[C@@H]1CCCN(c2ccnc(NC(=O)C(C)(C)c3ccc(CC(C)(C)C(=O)O)cc3)n2)C1 [Example 78, (R)-3-(4-(1-((4-(3-((3-ethoxypyridin-2-yl)oxy)piperidin-1-yl)pyrimidin-2-yl)amino)-2-methyl-1-oxopropan-2-yl)phenyl)-2,2-dimethylpropanoic acid] | 2500 nM
CCOc1ccccc1O[C@@H]1CCCN(c2cncc(NC(=O)c3cc(F)c(N4CCC(C(=O)O)CC4)c(F)c3)n2)C1 [Example 57] | 5300 nM
CCOc1ccccc1O[C@@H]1CCCN(c2cncc(NC(=O)Cc3ccc(CC(=O)O)cc3)n2)C1 [Example 34, (R)-2-(4-(2-((6-(3-(2-ethoxyphenoxy)piperidin-1-yl)pyrazin-2-yl)amino)-2-oxoethyl)phenyl)acetic acid] | 1100 nM
COc1ccccc1O[C@@H]1CCCN(c2cncc(NC(=O)CCc3ccc(C(C)(C)C(=O)O)cc3)n2)C1 [Example 91, (R)-2-(4-(3-((6-(3-(2-methoxyphenoxy)piperidin-1-yl)pyrazin-2-yl)amino)-3-oxopropyl)phenyl)-2-methylpropanoic acid] | 370 nM
CCOc1ccccc1O[C@@H]1CCCN(c2cncc(NC(=O)N[C@@H](Cc3ccccc3)C(=O)O)n2)C1 [Example 2, ((6-((R)-3-(2-ethoxyphenoxy)piperidin-1-yl)pyrazin-2-yl)carbamoyl)-L-phenylalanine] | 16000 nM
CCOc1ccccc1O[C@@H]1CCCN(c2cncc(NC(=O)COc3ccc(CC(=O)O)cc3)n2)C1 [Example 100, (R)-2-(4-(2-((6-(3-(2-ethoxyphenoxy)piperidin-1-yl)pyrazin-2-yl)amino)-2-oxoethoxy)phenyl)acetic acid] | 590 nM

The next compounds have a lower IC50 than those just listed; values first:

IC50 | Compound
140 nM | CCOc1ccccc1O[C@@H]1CCCN(c2cncc(NC(=O)CCC34CCC(C(=O)O)(CC3)CC4)n2)C1 [Example 117, (R)-4-(3-((6-(3-(2-ethoxyphenoxy)piperidin-1-yl)pyrazin-2-yl)amino)-3-oxopropyl)bicyclo[2.2.2]octane-1-carboxylic acid]
25 nM | CCOc1ccccc1O[C@@H]1CCCN(c2cncc(NC(=O)C3CCN(S(C)(=O)=O)CC3)n2)C1 [Example 15]
30 nM | CCOc1ccccc1O[C@@H]1CCCN(c2cncc(NC(=O)Cc3ccc(CC(N)=O)cc3)n2)C1 [Example 35]
10 nM | CCOc1ccccc1O[C@@H]1CCCN(c2cncc(NC(=O)C3CCN(S(=O)(=O)C(C)C)CC3)n2)C1 [Example 17, (R)—N-(6-(3-(2-ethoxyphenoxy)piperidin-1-yl)pyrazin-2-yl)-1-(isopropylsulfonyl)piperidine-4-carboxamide]
12 nM | CCOc1ccccc1O[C@@H]1CCCN(c2cncc(NC(=O)Cc3ccc(O)cc3)n2)C1 [Example 36, (R)—N-(6-(3-(2-ethoxyphenoxy)piperidin-1-yl)pyrazin-2-yl)-2-(4-hydroxyphenyl)acetamide]
130 nM | CCOc1cccnc1O[C@@H]1CCCN(c2cncc(NC(=O)[C@@H]3CCCN(c4cccc(CC(C)(C)C(=O)O)c4)C3)n2)C1 [Example 76]
49 nM | CCOc1ccccc1O[C@@H]1CCCN(c2cncc(NC(=O)Cc3cc(C(F)(F)F)cc(C(F)(F)F)c3)n2)C1 [Example 27, (R)-2-(3,5-bis(trifluoromethyl)phenyl)-N-(6-(3-(2-ethoxyphenoxy)piperidin-1-yl)pyrazin-2-yl)acetamide]
29 nM | CCOc1ccccc1O[C@@H]1CCCN(c2cncc(NC(=O)Cc3cccc(Cl)c3)n2)C1 [Example 30, (R)-2-(3-chlorophenyl)-N-(6-(3-(2-ethoxyphenoxy)piperidin-1-yl)pyrazin-2-yl)acetamide]
100 nM | CCOc1ccccc1O[C@@H]1CCCN(c2cncc(NC(=O)CCc3ccc(CC(=O)O)cc3)n2)C1 [Example 49, (R)-2-(4-(3-((6-(3-(2-ethoxyphenoxy)piperidin-1-yl)pyrazin-2-yl)amino)-3-oxopropyl)phenyl)acetic acid]
